Test results reported in PMC10065799, “High-throughput profiling of sequence recognition by tyrosine kinases and SH2 domains using bacterial peptide display” (eLife, 2023).
Where two headings read alike, the source gives them in different places.

How the values were obtained:
Assay in all cases: pTyr-Var library bacterial peptide display kinase screen (enrichment scores)
c-Abl kinase domain = target: T1, c-Abl kinase domain (Mus musculus, UniProt P00520); type: biochemical;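 also: log2 fold change in enrichment of variant over reference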
T1 sequence (P00520 242-493 limits assumed): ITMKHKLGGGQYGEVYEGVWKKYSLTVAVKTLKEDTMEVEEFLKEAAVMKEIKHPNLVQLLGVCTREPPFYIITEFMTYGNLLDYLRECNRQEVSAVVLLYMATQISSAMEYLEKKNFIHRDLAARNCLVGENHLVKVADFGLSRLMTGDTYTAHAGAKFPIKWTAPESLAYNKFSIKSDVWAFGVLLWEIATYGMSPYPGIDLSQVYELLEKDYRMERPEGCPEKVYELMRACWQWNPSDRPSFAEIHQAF

c-Src kinase domain = c-Src kinase domain (Homo sapiens, UniProt P12931); type: biochemical;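 also: log2 fold change in enrichment of variant over reference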
EPHB1 kinase domain = type: biochemical, human; details: for Screen: sheet EPHB1, effect of the variant peptide relative to its reference peptide in the pTyr-Var library screen (enrichment scores)
Fer kinase domain = type: biochemical, mouse; details: sheet "Fer"
[1] = sheet "Abl", effect of variant peptide relative to its reference peptide in pTyr-Var library screen (enrichment)
[2] = sheet "Src", effect of the variant peptide relative to its reference peptide in the pTyr-Var library screen
[3] = fig5-data2, sheet "Abl", Screen for the variant/reference peptide pair, pTyr-Var library
[4] = sheet "Src", variant peptide versus its reference peptide in the pTyr-Var library screen
[5] = value of the variant peptide against its reference peptide in the pTyr-Var library screen with Fer

RLAKRYLIWEC [SCN5A_Y694_Q692K] was tested, and the Screen (c-Abl kinase domain; [1]) was -1.185.

MKKMHYVDPDR [ST3GAL5_Y99_H104R] showed a Screen (c-Abl kinase domain; [1]) of -0.8054.

Work on DPLLTYQFPPK [LMNA_Y481_R482Q] yielded a Screen (c-Src kinase domain; [2]) of 1.304.

In the case of FRDALYKSMVD [PHEX_Y250_F252S_YF], the Screen (c-Abl kinase domain; [3]) is reported as 1.216.

In the case of LLASGYDSPIN [ABLIM1_Y638_R637G], the Screen (EPHB1 kinase domain) is reported as -0.7648.

In the case of GFGGGYGGVLT [KRT19_Y65_A60G_YF], the Screen (c-Abl kinase domain; [3]) is reported as -0.6696.

PSPTKYSLSPS [RANBP2_Y785_R784K] was tested, and the Screen (c-Abl kinase domain; [3]) was 1.871.

INITIYGKTFH [EFHC1_Y177_R182H] was tested, and the Screen (c-Abl kinase domain; [3]) was 2.247.

Sequence RDLHTYIMPAH [PNMT_Y256_R254H] has a Screen (EPHB1 kinase domain) of -2.793.

Work on KVPAIYGVGTR [CPS1_Y162_D165G] yielded a Screen (c-Src kinase domain; [2]) of 1.669.

For LLSVAYKNVVR [YWHAZ_Y48_G53R], the Screen (c-Abl kinase domain; [1]) was 1.295.

For FSQQTYFPVSN [ABCD1_Y180_R182P_YF], the Screen (c-Src kinase domain) was 1.076.

TDTQLYGRFGS [ITGA2B_Y384_G380D] gave a Screen (c-Src kinase domain; [2]) of -0.04787.

RILENYGADID [DNAH5_Y596_L591R] gave a Screen (c-Abl kinase domain; [3]) of -0.1652.

HLLRIYFDITD [MMP27_Y307_W304L_YF] showed a Screen (EPHB1 kinase domain) of 0.4409.

AALSAYAPQRP [PTPRN2_Y249_A251P] gave a Screen (c-Abl kinase domain; [3]) of -0.5816.

With GFEEAYSVSKK [PAFAH1B1_Y28_F31S_YF] the Screen (c-Src kinase domain; [4]) was -2.622.

AGIVVYNIIGW [MYH7_Y588_D587V] gave a Screen (c-Src kinase domain; [4]) of 2.236.

KGSLPYSLILD [PKD1L2_Y406_N407S] gave a Screen (c-Src kinase domain; [4]) of 1.59.

VKMLPYTEVTR [GDI1_Y93_L92P] showed a Screen (EPHB1 kinase domain) of -2.754.

VIIVLYFSLWK [SLC6A2_Y249_V245I] showed a Screen (c-Abl kinase domain; [1]) of -0.9059.

In the case of FKEDPYLVVNP [MCM6_Y810_E806K_YF], the Screen (c-Abl kinase domain; [3]) is reported as -1.709 and the Screen (c-Src kinase domain; [2]) is reported as -0.4166.

With FIGVTYKNKED [PDGFRA_Y993_E996K_YF] the Screen (c-Abl kinase domain; [3]) was -0.7207.

Sequence QTSSNYDDAMQ [ZNF281_Y531_I527T] has a Screen (c-Abl kinase domain; [1]) of -4.858.

With IATTIYSGDKI [UGGT2_Y823_A821T] the Screen (c-Src kinase domain; [4]) was -1.846.

Sequence NPQKSYFICLF [WAS_Y83_R86C_YF] has a Screen (c-Abl kinase domain; [1]) of 3.12.

TVHPGYGFLSE [PCCA_Y143_A138T] was tested, and the Screen (c-Abl kinase domain; [3]) was 1.846.

Sequence VVKTVYSLQPS [KNSTRN_Y87_P92S] has a Screen (c-Src kinase domain; [2]) of -0.2694.

SGEKPYKCSVC [ZNF543_Y283_E287V] showed a Screen (c-Abl kinase domain; [1]) of 3.958.

With ISNATYKQIGL [FLT1_Y199_E201Q] the Screen (c-Abl kinase domain; [3]) was -0.6358.

VQVAFYTVMMN [SPATA17_Y84_M86V_YF] gave a Screen (Fer kinase domain; variant peptide relative to its reference peptide, pTyr-Var library screen enrichment) of -1.379.

With CTHDLYMFMRE [FGFR3_Y724_I726F] the Screen (EPHB1 kinase domain) was 0.1536 and the Screen (c-Src kinase domain; [2]) was 0.09652.

With FVPSNYVAEDR [FRK_Y104_I100V_YF] the Screen (c-Abl kinase domain; [3]) was 0.1639.

In the case of HLGNQYVNVMN [SLC3A1_Y461_R456H], the “Screen (variant relative to reference peptide, measured in the pTyr-Var library screen)” value (EPHB1 kinase domain; sheet "EPHB1", variant seq vs reference seq, bacterial peptide display enrichment) is reported as -0.5071.

Work on ICGVSYDEFRF [CFTR_Y512_F508C_YF] yielded a Screen (Fer kinase domain; [5]) of -0.3864 and a Screen (c-Src kinase domain; [2]) of -0.6525.

Sequence FRQNGYIPGSN [PCDHGB2_Y895_V894G_YF] has a Screen (c-Abl kinase domain; [3]) of -0.7593.

For RSSGSYGGGGQ [HNRNPA1_Y341_P340S], the Screen (EPHB1 kinase domain) was 0.1057.

With SSSNPYSTVTV [ACTN2_Y599_M604V] the Screen (Fer kinase domain; [5]) was -0.1641 and the Screen (c-Src kinase domain; [2]) was -0.5875.

Work on ETEMLYGSARR [PRC1_Y464_P468R] yielded a Screen (Fer kinase domain; [5]) of -2.34 and a Screen (c-Src kinase domain; [4]) of -0.8951.

Sequence ADRNHYRRFRR [YBX1_Y145_P149R_YF] has a Screen (c-Abl kinase domain; [1]) of -2.647.

Work on VVSLFYGTALF [OR10C1_Y251_M246V] yielded a Screen (c-Src kinase domain; [4]) of -0.3109.

RKLVDYDSAQH [BIN1_Y150_R154Q] gave a Screen (c-Abl kinase domain; [3]) of -0.7012.

Sequence CSRCFYQLTKL [AR_Y858_R856C] has a Screen (Fer kinase domain; [5]) of 1.959.

Work on ELQGTYTSLQQ [KIF3C_Y574_R571Q] yielded a Screen (c-Src kinase domain; [2]) of 1.278.

PQAVTYAEVKH [LILRB4_Y360_K362E] showed a Screen (EPHB1 kinase domain) of 2.401 and a Screen (c-Src kinase domain; [2]) of 2.83.

In the case of ACLSLYGGFVE [MVD_Y164_R161L], the Screen (c-Src kinase domain; [2]) is reported as -0.5782.

FDKPVYQKTTE [LDLR_Y828_N825K] showed a Screen (c-Abl kinase domain; [3]) of 0.7779.

Work on GFFDLYGGEKF [PTPN11_Y66_D61G_YF] yielded a Screen (c-Src kinase domain; [4]) of -0.05122.

KKHIPYRQHKS [CSNK1G2_Y206_E208Q] showed a Screen (Fer kinase domain; [5]) of 0.3167 and a Screen (EPHB1 kinase domain) of 0.2176.

For FSMGCYEFSLG [HMGCL_Y198_I200F_YF], the Screen (c-Abl kinase domain; [3]) was 1.5, the Screen (Fer kinase domain; [5]) was 0.8119 and the Screen (c-Src kinase domain; [2]) was -0.3724.

In the case of MFNPCYGLFEF [NEDD4L_Y680_Y679C_YF], the Screen (Fer kinase domain; [5]) is reported as -0.1579 and the Screen (c-Src kinase domain; [4]) is reported as -0.1736.

With GENTVYAQVFN [LY9_Y603_M602V] the Screen (Fer kinase domain; [5]) was 0.3094, the Screen (EPHB1 kinase domain) was 0.06415 and the Screen (c-Src kinase domain; [2]) was 1.086.

In the case of SSFDTYHLSRE [KIR3DL2_Y253_I252T_YF], the Screen (c-Src kinase domain; [2]) is reported as -1.121.
